Laboratory results published in patent publication US11015216B2, “Substituted imidazo[1,2-a]pyrazines as luciferase substrates” (PROMEGA CORPORATION, priority 2016, dated 2021).

Key:
luciferase = test: Additional luciferase substrate assay, compared to known analogue C-1 (Table 3); type: biochemical; conditions: relative to C-1 (=1)
Procedure: (§1) Luminescence Assay Procedure: Each compound to be screened was dissolved in DMSO (5 mM) and then further diluted to 100 uM in NANO-GLOR Luciferase Assay Buffer. Each diluted substrate was then combined in equal volumes with purified NanoLuc® Luciferase diluted into CO2 independent media+10% FBS. Initial light output for each substrate was measured in a GloMax®-Multi+ luminometer three minutes after substrate addition and then at five minute intervals as a means to determine signal half-life.
The compounds of formula (I) were also evaluated for their ability to be luciferase substrates in an additional assay.

NanoLuc® Luciferase = NanoLuc® Luciferase (Oplophorus gracilirostris, UniProt Q9GV45, A31E/A60N/A81I/F95D/I117V/K70R/L54V/L99Q/M102K/N193R/P142E/Q151K/Q38R/Q45L/V71I/Y165I); type: biochemical; conditions: ratio to coelenterazine (=1); for I (relative light units, ratio in comparison to native coelenterazine): initial light output three minutes after substrate addition; for Half-life (signal half-life, ratio in comparison to native coelenterazine): read at five minute intervals
Procedure: as §1
A subset of the synthesized coelenterazine analogues (compounds of formula (I)) were evaluated for their suitability as luciferase substrates. NANOLUC® luciferase was employed for the screening because it is a small (19 kDa), stable, and particularly bright enzyme.

Sequence of NanoLuc® Luciferase (Q9GV45 other isoform, or with tags, fused parts or gaps with the stated changes): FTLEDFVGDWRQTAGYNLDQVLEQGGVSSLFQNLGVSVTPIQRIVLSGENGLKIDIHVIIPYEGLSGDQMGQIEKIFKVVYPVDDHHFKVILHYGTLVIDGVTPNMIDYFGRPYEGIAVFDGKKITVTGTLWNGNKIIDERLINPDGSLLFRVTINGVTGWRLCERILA

| SMILES | RLU (@100 uM) (luciferase) | I (relative light units, ratio in comparison to native coelenterazine) (NanoLuc® Luciferase) | Half-life (signal half-life, ratio in comparison to native coelenterazine) (NanoLuc® Luciferase) |
| --- | --- | --- | --- |
| CCOP(=O)(OCC)c1nc2c(Cc3ccccc3)[nH]c(-c3ccccc3)cn-2c1=O [Compound 1, diethyl (8-benzyl-3-oxo-6-phenyl-3,7-dihydroimidazo[1,2-a]pyrazin-2-yl)phosphonate] | 0.00048 | – | – |
| O=c1c(Cc2ccc(F)cc2)nc2c(Cc3ccccc3)[nH]c(-c3ccccc3)cn1-2 [Compound 2] | 0.96 | 40 | 0.16 |
| O=c1c(Cc2ccc(F)cc2F)nc2c(Cc3ccccc3)[nH]c(-c3ccccc3)cn1-2 [Compound 3] | 0.93 | 38.75 | 0.23 |
| O=c1c(Cc2ccc3ccccc3c2)nc2c(Cc3ccccc3)[nH]c(-c3ccccc3)cn1-2 [Compound 4] | 0.22 | 9.166 | 0.72 |
| CC(C)(C)c1ccc(Cc2nc3c(Cc4ccccc4)[nH]c(-c4ccccc4)cn-3c2=O)cc1 [Compound 5] | 0.093 | 3.875 | 0.43 |
| O=c1c(Cc2cc3ccccc3s2)nc2c(Cc3ccccc3)[nH]c(-c3ccccc3)cn1-2 [Compound 6] | 0.33 | 13.75 | 0.33 |
| O=c1c(Cc2csc3ccccc23)nc2c(Cc3ccccc3)[nH]c(-c3ccccc3)cn1-2 [Compound 7] | 0.1 | 4.166 | 0.52 |
| COc1ccc(Cc2nc3c(Cc4ccccc4)[nH]c(-c4ccccc4)cn-3c2=O)cc1 [Compound 8] | 0.56 | 23.333 | 0.38 |
| Nc1ccc(Cc2nc3c(Cc4ccccc4)[nH]c(-c4ccccc4)cn-3c2=O)cc1 [Compound 9] | 0.025 | 1.041 | 0.93 |
| O=C(O)c1ccc(Cc2nc3c(Cc4ccccc4)[nH]c(-c4ccccc4)cn-3c2=O)cc1 [Compound 10] | 0.0034 | 0.142 | 1.02 |
| Cn1nnc2cc(Cc3nc4c(Cc5ccccc5)[nH]c(-c5ccccc5)cn-4c3=O)ccc21 [Compound 11] | 0.0072 | 0.3 | 1.04 |
| COc1cccc(Cc2nc3c(Cc4ccccc4)[nH]c(-c4ccccc4)cn-3c2=O)c1 [Compound 17] | 0.83 | – | – |
| COc1cc(Cc2nc3c(Cc4ccccc4)[nH]c(-c4ccccc4)cn-3c2=O)ccc1F [Compound 18] | 0.4 | – | – |
| COc1ccc(Cc2nc3c(Cc4ccccc4)[nH]c(-c4ccccc4)cn-3c2=O)cc1F [Compound 21] | 0.32 | – | – |
| CC(C)(C)OC(=O)Nc1cccc(Cc2nc3c(Cc4ccccc4)[nH]c(-c4ccccc4)cn-3c2=O)c1 [Compound 23] | 0.001 | – | – |
| COc1ccc(Cc2nc3c(Cc4ccccc4)[nH]c(-c4ccccc4)cn-3c2=O)s1 [Compound 24] | 0.68 | – | – |
| Nc1cccc(Cc2nc3c(Cc4ccccc4)[nH]c(-c4ccccc4)cn-3c2=O)c1 [Compound 25] | 0.15 | – | – |
| O=c1c(Cc2ccc(-c3ccccc3)cc2)nc2c(Cc3ccccc3)[nH]c(-c3ccccc3)cn1-2 [Compound 26] | 0.046 | – | – |
| O=c1c(CC2=Cc3ccccc3OC2)nc2c(Cc3ccccc3)[nH]c(-c3ccccc3)cn1-2 [Compound 27] | 0.1 | – | – |

| SMILES | RLU (@100 uM) (luciferase) | I (relative light units, ratio in comparison to native coelenterazine) (NanoLuc® Luciferase) | Half-life (signal half-life, ratio in comparison to native coelenterazine) (NanoLuc® Luciferase) |
| --- | --- | --- | --- |
| O=c1c(Cc2cccc3c2oc2ccccc23)nc2c(Cc3ccccc3)[nH]c(-c3ccccc3)cn1-2 [Compound 28] | 0.01 | – | – |
| O=c1c(C/C=C/c2ccccc2)nc2c(Cc3ccccc3)[nH]c(-c3ccccc3)cn1-2 [Compound 29] | 0.13 | – | – |
| CC(C)(C)OC(=O)Nc1ccc(Cc2nc3c(Cc4ccccc4)[nH]c(-c4ccccc4)cn-3c2=O)cc1 [Compound 30] | 0.001 | – | – |
| C=CCOc1ccc(Cc2nc3c(Cc4ccccc4)[nH]c(-c4ccccc4)cn-3c2=O)cc1OC [Compound 31] | 0.054 | – | – |
| COc1cc(Cc2nc3c(Cc4ccccc4)[nH]c(-c4ccccc4)cn-3c2=O)ccc1O [Compound 32] | 0.052 | – | – |
| Cn1cnnc1Sc1ccc(Cc2nc3c(Cc4ccccc4)[nH]c(-c4ccccc4)cn-3c2=O)o1 [Compound 33] | 0.017 | – | – |
| O=c1c(Cc2ccc(-c3ccccn3)s2)nc2c(Cc3ccccc3)[nH]c(-c3ccccc3)cn1-2 [Compound 34] | 0.02 | – | – |
| CCCCCCCCCCCCc1nc2c(Cc3ccccc3)[nH]c(-c3ccccc3)cn-2c1=O [Compound 35] | 0.0005 | – | – |
| O=c1c(Cc2ccncc2)nc2c(Cc3ccccc3)[nH]c(-c3ccccc3)cn1-2 [Compound 36] | 0.0017 | – | – |
| O=c1c(Cc2ccc(C3CCCCC3)s2)nc2c(Cc3ccccc3)[nH]c(-c3ccccc3)cn1-2 [Compound 37] | 0.05 | – | – |
| O=c1c(Cc2ccc(-c3cccs3)s2)nc2c(Cc3ccccc3)[nH]c(-c3ccccc3)cn1-2 [Compound 38] | 0.054 | – | – |
| CC(C)Cc1ccc(Cc2nc3c(Cc4ccccc4)[nH]c(-c4ccccc4)cn-3c2=O)s1 [Compound 39] | 0.29 | – | – |
| Cn1nc(-c2ccc(Cc3nc4c(Cc5ccccc5)[nH]c(-c5ccccc5)cn-4c3=O)s2)cc1C(F)(F)F [Compound 40] | 0.0042 | – | – |
| O=c1c(Cc2ccc(C(F)(F)F)o2)nc2c(Cc3ccccc3)[nH]c(-c3ccccc3)cn1-2 [Compound 41] | 0.82 | – | – |
| COCc1ccc(Cc2nc3c(Cc4ccccc4)[nH]c(-c4ccccc4)cn-3c2=O)o1 [Compound 42] | 0.52 | – | – |
| O=c1c(Cc2c(F)c(F)c(F)c(F)c2F)nc2c(Cc3ccccc3)[nH]c(-c3ccccc3)cn1-2 [Compound 43] | 0.052 | – | – |
| O=c1c(Cc2cc(C(F)(F)F)cc(C(F)(F)F)c2)nc2c(Cc3ccccc3)[nH]c(-c3ccccc3)cn1-2 [Compound 44] | 0.019 | – | – |
| Cn1nc(C(F)(F)F)c(Cc2nc3c(Cc4ccccc4)[nH]c(-c4ccccc4)cn-3c2=O)c1Cl [Compound 45] | 0.0012 | – | – |
| O=C(O)c1cccc(Cc2nc3c(Cc4ccccc4)[nH]c(-c4ccccc4)cn-3c2=O)c1 [Compound 47] | 0.013 | – | – |

| SMILES | RLU (@100 uM) (luciferase) | I (relative light units, ratio in comparison to native coelenterazine) (NanoLuc® Luciferase) | Half-life (signal half-life, ratio in comparison to native coelenterazine) (NanoLuc® Luciferase) |
| --- | --- | --- | --- |
| NCc1cccc(Cc2nc3c(Cc4ccccc4)[nH]c(-c4ccccc4)cn-3c2=O)c1 [Compound 48] | 0.0013 | – | – |
| CS(=O)(=O)Nc1cccc(Cc2nc3c(Cc4ccccc4)[nH]c(-c4ccccc4)cn-3c2=O)c1 [Compound 49] | 0.002 | – | – |
| COCc1cc(Cc2nc3c(Cc4ccccc4)[nH]c(-c4ccccc4)cn-3c2=O)ccc1OC [Compound 50] | 0.023 | – | – |
| CN(C)c1cccc(Cc2nc3c(Cc4ccccc4)[nH]c(-c4ccccc4)cn-3c2=O)c1 [Compound 51] | 0.49 | – | – |
| COCc1ccc(Cc2nc3c(Cc4ccccc4)[nH]c(-c4ccccc4)cn-3c2=O)s1 [Compound 52] | 0.45 | – | – |
| COCc1cccc(Cc2nc3c(Cc4ccccc4)[nH]c(-c4ccccc4)cn-3c2=O)c1 [Compound 53] | 0.47 | – | – |
| O=c1c(Cc2cccc(CO)c2)nc2c(Cc3ccccc3)[nH]c(-c3ccccc3)cn1-2 [Compound 54] | 0.04 | – | – |
| CCCSc1ncc(Cc2nc3c(Cc4ccccc4)[nH]c(-c4ccccc4)cn-3c2=O)cn1 [Compound 56] | 0.0098 | – | – |
| COc1ccc(Cc2nc3c(Cc4ccccc4)[nH]c(-c4ccccc4)cn-3c2=O)cc1OC [Compound 57] | 0.063 | – | – |
| CSc1cccc(Cc2nc3c(Cc4ccccc4)[nH]c(-c4ccccc4)cn-3c2=O)c1 [Compound 58] | 0.47 | – | – |
| O=c1c(Cc2ccc3c(c2)OCO3)nc2c(Cc3ccccc3)[nH]c(-c3ccccc3)cn1-2 [Compound 59] | 0.72 | – | – |
| CN(C)Oc1cccc(Cc2nc3c(Cc4ccccc4)[nH]c(-c4ccccc4)cn-3c2=O)c1 [Compound 60] | 0.00038 | – | – |
| CCOc1cccc(Cc2nc3c(Cc4ccccc4)[nH]c(-c4ccccc4)cn-3c2=O)c1 [Compound 61] | 0.49 | – | – |
| COCCOc1cccc(Cc2nc3c(Cc4ccccc4)[nH]c(-c4ccccc4)cn-3c2=O)c1 [Compound 62] | 0.057 | – | – |
| O=c1c(Cc2cnccn2)nc2c(Cc3ccccc3)[nH]c(-c3ccccc3)cn1-2 [Compound 84] | 0.003 | – | – |
| Cn1c(Cc2nc3c(Cc4ccccc4)[nH]c(-c4ccccc4)cn-3c2=O)cc2sccc21 [Compound 85] | 0.038 | – | – |
| O=c1c(C=Cc2ccccc2)nc2c(Cc3ccccc3)[nH]c(-c3ccccc3)cn1-2 [Compound 86] | 0.0002 | – | – |
| O=c1c(Cc2ccco2)nc2c(Cc3ccccc3)[nH]c(-c3ccccc3)cn1-2 [Compound C-1, 8-benzyl-2-(furan-2-ylmethyl)-6-phenylimidazo[1,2-a]pyrazin-3(7H)-one, reference compound] | 1 | – | – |
| Oc1ccc(Cc2nc3c(Cc4ccccc4)nc(-c4ccc(O)cc4)cn3c2O)cc1 [coelenterazine, reference compound] | – | 1 | 1 |
